The text below walks through data of patent publication US20260132132A1, “3A,4,5,6-TETRAHYDRO-1 H-PYRAZOLO[3,4-C]PYRIDIN-7(7AH)-ONE DERIVATIVES AS FACTOR XIIA INHIBITORS” (KALVISTA PHARMACEUTICALS LIMITED, priority 2022, published 2026).

Structures are written as SMILES.

For one assay, the target named is FXa (Homo sapiens, UniProt P00742). Nature of the assay: Related protease inhibition: FXa, fluorogenic substrate. It is filed as biochemical. As to conditions: fluorogenic substrate at Km, 25° C.; H1-H3 = % activity at 40 μM. As to the method:
Human serine protease enzyme Plasma Kallikrein, KLK1, FXa, Plasmin, Thrombin and Trypsin were assayed for enzymatic activity using an appropriate fluorogenic substrate at Km concentration, FXIa at fixed substrate concentration of 100 μM and various concentrations of the test compound.

For assay [1], the target named is T1, Human Factor XIIa (hFXIIa) (Homo sapiens, UniProt P00748).
T1 construct: purchased Enzyme Research Laboratories
T1 sequence (P00748 373-615 limits assumed): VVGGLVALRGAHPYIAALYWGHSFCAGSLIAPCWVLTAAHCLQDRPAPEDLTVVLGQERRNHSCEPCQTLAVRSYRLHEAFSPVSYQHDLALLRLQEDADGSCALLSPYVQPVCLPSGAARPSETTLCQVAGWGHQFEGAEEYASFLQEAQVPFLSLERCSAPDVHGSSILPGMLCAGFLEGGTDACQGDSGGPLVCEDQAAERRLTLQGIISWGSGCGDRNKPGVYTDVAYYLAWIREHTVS
T1 sequence (P00748 20-372 partner limits assumed): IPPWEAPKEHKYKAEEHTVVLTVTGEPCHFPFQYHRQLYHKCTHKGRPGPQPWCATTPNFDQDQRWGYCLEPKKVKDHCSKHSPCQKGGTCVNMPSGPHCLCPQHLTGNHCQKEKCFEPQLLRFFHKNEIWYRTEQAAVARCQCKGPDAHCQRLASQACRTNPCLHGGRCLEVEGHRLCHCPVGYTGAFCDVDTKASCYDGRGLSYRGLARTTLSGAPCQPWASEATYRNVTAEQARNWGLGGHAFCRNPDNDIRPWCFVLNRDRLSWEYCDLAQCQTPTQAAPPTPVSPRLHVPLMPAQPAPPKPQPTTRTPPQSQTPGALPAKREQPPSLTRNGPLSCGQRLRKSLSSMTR
Nature of the assay: Determination of Human Factor XIIa (hFXIIa) inhibition, fluorogenic substrate IC50 assay. The class given is biochemical. Conditions: fluorogenic substrate H-DPro-Phe-Arg-AFC at Km, 25° C., read-out: Human FXIIa IC50. Here is the method: Determination of Human Factor XIIa (hFXIIa) inhibition
The Km for the cleavage of the substrate by hFXIIa was determined by standard transformation of the Michaelis-Menten equation, with subsequent inhibition assays performed at substrate Km concentration.

Chain of FXa (P00742 235-488 limits assumed): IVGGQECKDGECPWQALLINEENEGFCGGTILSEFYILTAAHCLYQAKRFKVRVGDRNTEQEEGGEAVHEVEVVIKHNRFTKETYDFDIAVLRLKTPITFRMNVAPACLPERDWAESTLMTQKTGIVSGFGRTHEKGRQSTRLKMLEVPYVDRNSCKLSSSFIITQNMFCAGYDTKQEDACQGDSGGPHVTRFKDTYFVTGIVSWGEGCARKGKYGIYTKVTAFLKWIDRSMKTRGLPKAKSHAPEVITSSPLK
Chain of FXa (P00742 41-179 partner limits assumed): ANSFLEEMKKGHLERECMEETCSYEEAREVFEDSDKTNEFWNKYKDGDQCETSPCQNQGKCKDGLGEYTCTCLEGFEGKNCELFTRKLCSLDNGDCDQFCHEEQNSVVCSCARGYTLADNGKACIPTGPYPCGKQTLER

As for `Cc1ccnc(C)c1CNC(=O)c1nn(-c2cccc(Cl)c2)c2c1CCN(c1ccc3c(c1)C(=O)N(CCO)CC3)C2=O` [Example 1326, 1-(3-chlorophenyl)-N-((2,4-dimethylpyridin-3-yl)methyl)-6-(2-(2-hydroxyethyl)-1-oxo-1,2,3,4-tetrahydroisoquinolin-7-yl)-7-oxo-4,5,6,7-tetrahydro-1H-pyrazolo[3,4-c]pyridine-3-carboxamide], the IC50 against FXa was > 40 µM; in assay [1], 0.1 to 0.3 µM.
Taken in the same sequence, the figures for `Cc1noc(C)c1CNC(=O)c1nn(-c2cccc(Cl)c2)c2c1CCN(c1ccc3c(c1)C(=O)N(C)CC3)C2=O` [Example 1185, 1-(3-chlorophenyl)-N-((3,5-dimethylisoxazol-4-yl)methyl)-6-(2-methyl-1-oxo-1,2,3,4-tetrahydroisoquinolin-7-yl)-7-oxo-4,5,6,7-tetrahydro-1H-pyrazolo[3,4-c]pyridine-3-carboxamide] were > 40 µM and 0.3 to 1 µM.
With `COC(=O)C(NC(=O)c1nn(-c2cccc(Cl)c2)c2c1CCN(c1ccc3c(c1)C(=O)N(C)CC3)C2=O)c1cccnc1` (centres unmarked) [Example 1325, methyl 2-(1-(3-chlorophenyl)-6-(2-methyl-1-oxo-1,2,3,4-tetrahydroisoquinolin-7-yl)-7-oxo-4,5,6,7-tetrahydro-1H-pyrazolo[3,4-c]pyridine-3-carboxamido)-2-(pyridin-3-yl)acetate], the values for the IC50 (at FXa; in assay [1]) were 1 to 3 µM and 0.1 to 0.3 µM, respectively.
As to `CN1CCc2ccc(N3CCc4c(C(=O)NCC5CCCCC5)nn(-c5cccc(Cl)c5)c4C3=O)cc2C1` [Example 1023, 1-(3-chlorophenyl)-N-(cyclohexylmethyl)-6-(2-methyl-1,2,3,4-tetrahydroisoquinolin-7-yl)-7-oxo-4,5,6,7-tetrahydro-1H-pyrazolo[3,4-c]pyridine-3-carboxamide], the values for the IC50 (on FXa; in assay [1]) were 3 to 10 µM and 0.1 to 0.3 µM, respectively.
On the same counts, the results for `Cc1cccnc1CNC(=O)c1nn(-c2cccc(Cl)c2)c2c1CCN(c1ccc3c(c1)C(=O)N(C)CC3)C2=O` [Example 1308, 1-(3-chlorophenyl)-6-(2-methyl-1-oxo-1,2,3,4-tetrahydroisoquinolin-7-yl)-N-((3-methylpyridin-2-yl)methyl)-7-oxo-4,5,6,7-tetrahydro-1H-pyrazolo[3,4-c]pyridine-3-carboxamide] are > 40 µM and 0.3 to 1 µM.
On to `CCCN1CCc2ccc(N3CCc4c(C(=O)NCC5CC5)nn(-c5cccc(Cl)c5)c4C3=O)cc2C1=O` [Example 1211, 1-(3-chlorophenyl)-N-(cyclopropylmethyl)-7-oxo-6-(1-oxo-2-propyl-1,2,3,4-tetrahydroisoquinolin-7-yl)-4,5,6,7-tetrahydro-1H-pyrazolo[3,4-c]pyridine-3-carboxamide], for which the IC50 is > 40 µM against FXa and 0.3 to 1 µM in assay [1].
Taken in the same sequence, the figures for `Cc1cc(CNC(=O)c2nn(-c3cccc(Cl)c3)c3c2CCN(c2ccc4c(c2)N(C)C(=O)CC4)C3=O)nn1C` [Example 1208, 1-(3-chlorophenyl)-N-((1,5-dimethyl-1H-pyrazol-3-yl)methyl)-6-(1-methyl-2-oxo-1,2,3,4-tetrahydroquinolin-7-yl)-7-oxo-4,5,6,7-tetrahydro-1H-pyrazolo[3,4-c]pyridine-3-carboxamide] were 10 to 40 µM and 1 to 3 µM.
As for `Cc1ccncc1CNC(=O)c1nn(-c2cccc(Cl)c2)c2c1CCN(c1ccc3c(c1)C(=O)N(CCO)CC3)C2=O` [Example 1236, 1-(3-chlorophenyl)-6-(2-(2-hydroxyethyl)-1-oxo-1,2,3,4-tetrahydroisoquinolin-7-yl)-N-((4-methylpyridin-3-yl)methyl)-7-oxo-4,5,6,7-tetrahydro-1H-pyrazolo[3,4-c]pyridine-3-carboxamide], the IC50 is > 40 µM against FXa and 0.01 to 0.1 µM in assay [1].
Taken in the same sequence, the figures for `CN1C(=O)CCc2ccc(N3CCc4c(C(=O)NCC5CC5)nn(-c5cccc(Cl)c5)c4C3=O)cc21` [Example 1207, 1-(3-chlorophenyl)-N-(cyclopropylmethyl)-6-(1-methyl-2-oxo-1,2,3,4-tetrahydroquinolin-7-yl)-7-oxo-4,5,6,7-tetrahydro-1H-pyrazolo[3,4-c]pyridine-3-carboxamide] were > 40 µM and 3 to 10 µM.
In the case of `CCN1CCc2ccc(N3CCc4c(C(=O)N[C@H](CO)c5ccccc5)nn(-c5cccc(Cl)c5)c4C3=O)cc2C1` [Example 1051, (S)-1-(3-chlorophenyl)-6-(2-ethyl-1,2,3,4-tetrahydroisoquinolin-7-yl)-N-(2-hydroxy-1-phenylethyl)-7-oxo-4,5,6,7-tetrahydro-1H-pyrazolo[3,4-c]pyridine-3-carboxamide], the IC50 lay within 3 to 10 µM against FXa and 0.01 to 0.1 µM in assay [1].
As to `CN1CCCc2ccc(N3CCc4c(C(=O)NCc5ccccc5)nn(-c5cccc(Cl)c5)c4C3=O)cc2C1` [Example 1030, N-benzyl-1-(3-chlorophenyl)-6-(2-methyl-2,3,4,5-tetrahydro-1H-benzo[c]azepin-8-yl)-7-oxo-4,5,6,7-tetrahydro-1H-pyrazolo[3,4-c]pyridine-3-carboxamide], the IC50 is 3 to 10 µM at FXa and 0.1 to 0.3 µM in assay [1].
On to `Cc1ccncc1CNC(=O)c1nn(-c2cccc(C(F)(F)F)c2)c2c1CCN(c1ccc3c(c1)CN(CCO)CC3)C2=O` [Example 2009, 6-(2-(2-hydroxyethyl)-1,2,3,4-tetrahydroisoquinolin-7-yl)-N-((4-methylpyridin-3-yl)methyl)-7-oxo-1-(3-(trifluoromethyl)phenyl)-4,5,6,7-tetrahydro-1H-pyrazolo[3,4-c]pyridine-3-carboxamide], for which the values for the IC50 (against FXa; in assay [1]) were > 40 µM and 0.1 to 0.3 µM, respectively.
As for `CCOC(=O)c1nn(-c2cccc(Cl)c2)c2c1CCN(c1cccc(-n3ccccc3=O)c1)C2=O` [Example 1350, ethyl 1-(3-chlorophenyl)-7-oxo-6-(3-(2-oxopyridin-1(2H)-yl)phenyl)-4,5,6,7-tetrahydro-1H-pyrazolo[3,4-c]pyridine-3-carboxylate], the IC50 (against FXa; in assay [1]) was 3 to 10 µM throughout.
Take `CCNC(=O)c1nn(-c2cccc(Cl)c2)c2c1CCN(c1cccc(N3CCCS3(=O)=O)c1)C2=O` [Example 1366, 1-(3-chlorophenyl)-6-(3-(1,1-dioxidoisothiazolidin-2-yl)phenyl)-N-ethyl-7-oxo-4,5,6,7-tetrahydro-1H-pyrazolo[3,4-c]pyridine-3-carboxamide]: the values for the half-inhibitory concentration (IC50) (against FXa; in assay [1]) were 10 to 40 µM and 3 to 10 µM, respectively.
Take `Cc1cc(CNC(=O)c2nn(-c3cccc(Cl)c3)c3c2CCN(c2ccc4c(c2)C(=O)N(CCCO)CC4)C3=O)nn1C` [Example 1275, 1-(3-chlorophenyl)-N-((1,5-dimethyl-1H-pyrazol-3-yl)methyl)-6-(2-(3-hydroxypropyl)-1-oxo-1,2,3,4-tetrahydroisoquinolin-7-yl)-7-oxo-4,5,6,7-tetrahydro-1H-pyrazolo[3,4-c]pyridine-3-carboxamide]: the IC50 at FXa is 10 to 40 µM; in assay [1] it was 0.01 to 0.1 µM.
Consider `Cc1cc(CNC(=O)c2nn(-c3cccc(Cl)c3)c3c2CCN(c2ccc4c(c2)C(=O)N(CC2CCOC2)CC4)C3=O)nn1C` (centres unmarked) [Example 1258, 1-(3-chlorophenyl)-N-((1,5-dimethyl-1H-pyrazol-3-yl)methyl)-7-oxo-6-(1-oxo-2-((tetrahydrofuran-3-yl)methyl)-1,2,3,4-tetrahydroisoquinolin-7-yl)-4,5,6,7-tetrahydro-1H-pyrazolo[3,4-c]pyridine-3-carboxamide], for which the figures for the IC50 (on FXa; in assay [1]) were > 40 µM and 0.1 to 0.3 µM, respectively.
Regarding `CC(=O)N1CCc2ccc(N3CCc4c(C(=O)NCc5cnccc5C)nn(-c5cccc(Cl)c5)c4C3=O)cc21` [Example 1188, 6-(1-acetylindolin-6-yl)-1-(3-chlorophenyl)-N-((4-methylpyridin-3-yl)methyl)-7-oxo-4,5,6,7-tetrahydro-1H-pyrazolo[3,4-c]pyridine-3-carboxamide], the figures for the IC50 (on FXa; in assay [1]) were > 40 µM and 0.1 to 0.3 µM, respectively.
Consider `CN1CCc2ccc(N3CCc4c(C(=O)NCCC(=O)O)nn(-c5cccc(Cl)c5)c4C3=O)cc2C1=O` [Example 1386, 3-(1-(3-chlorophenyl)-6-(2-methyl-1-oxo-1,2,3,4-tetrahydroisoquinolin-7-yl)-7-oxo-4,5,6,7-tetrahydro-1H-pyrazolo[3,4-c]pyridine-3-carboxamido)propanoic acid], for which the IC50 against FXa is > 40 µM; in assay [1], 1 to 3 µM.
On the same counts, the results for `Cc1cc(CNC(=O)c2nn(-c3cccc(Cl)c3)c3c(=O)n(-c4ccc5c(c4)C(=O)N(C)CC5)c(C)nc23)nn1C` [Example 3021, 1-(3-chlorophenyl)-N-((1,5-dimethyl-1H-pyrazol-3-yl)methyl)-5-methyl-6-(2-methyl-1-oxo-1,2,3,4-tetrahydroisoquinolin-7-yl)-7-oxo-6,7-dihydro-1H-pyrazolo[4,3-d]pyrimidine-3-carboxamide] are 10 to 40 µM and 0.1 to 0.3 µM.
